Common to all, as to type: in vivo
Assay [1] concerns Digitaria sanguinalis (DIGSA). The assay can be described thus: Pre-emergence herbicidal activity, glasshouse pot test. The conditions noted are these: 480 h, rate 250 g/ha, evaluated 20 days later, 100=total damage to plant, 0=no damage to plant. The essentials: (§1)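 Plants sown in standard soil in pots were sprayed 1 day after sowing (pre-emergence) or after 10 days' glasshouse growth (post-emergence) with aqueous spray from active ingredient in acetone plus Emulsogen EL/N-methylpyrrolidone/dipropylene glycol monomethyl ether/X-77 formulation. Damage scored 0–100 (100 = total) after 20 days (pre) or 15 days (post).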

Assay [2] relates to Setaria faberi (SETFA). The assay is described as above. The conditions noted are these: 480 h, rate 250 g/ha, evaluated 20 days later, 100=total damage to plant, 0=no damage to plant. In a few lines:
as §1

Assay [3] has as its system Alopecurus myosuroides (ALOMY). The assay is described as above. The conditions noted are these: 480 h, rate 250 g/ha, evaluated 20 days later, 100=total damage to plant, 0=no damage to plant. In a few lines: as §1
For assay [4], the system named is Lolium perenne (LOLPE). The description is as above. The settings on record: 480 h, rate 250 g/ha, evaluated 20 days later, 100=total damage to plant, 0=no damage to plant. In a few lines:
as §1

The subject of assay [5] is Avena fatua (AVEFA). The assay is described as above. The settings on record: 480 h, rate 250 g/ha, evaluated 20 days later, 100=total damage to plant, 0=no damage to plant. The essentials:
as §1

Assay [6] deals with Echinochloa crus-galli (ECHCG). Described as above. The settings on record: 480 h, rate 250 g/ha, evaluated 20 days later, 100=total damage to plant, 0=no damage to plant. In a few lines:
as §1

For assay [7], the system named is Digitaria sanguinalis (DIGSA). The assay can be described thus: Post-emergence herbicidal activity, glasshouse pot test. The settings on record: 360 h, rate 125 g/ha, evaluated 15 days later, 100=total damage to plant, 0=no damage to plant. The essentials: as §1
The subject of assay [8] is Setaria faberi (SETFA). The description is as above. The conditions noted are these: 360 h, rate 125 g/ha, evaluated 15 days later, 100=total damage to plant, 0=no damage to plant. In a few lines: as §1
For assay [9], the system named is Alopecurus myosuroides (ALOMY). The assay is described as above. The conditions noted are these: 360 h, rate 125 g/ha, evaluated 15 days later, 100=total damage to plant, 0=no damage to plant. The essentials: as §1
The test system of assay [10] is Lolium perenne (LOLPE). The assay is described as above. The settings on record: 360 h, rate 125 g/ha, evaluated 15 days later, 100=total damage to plant, 0=no damage to plant. The essentials:
as §1

Assay [11] deals with Avena fatua (AVEFA). Described as above. The conditions noted are these: 360 h, rate 125 g/ha, evaluated 15 days later, 100=total damage to plant, 0=no damage to plant. The essentials: as §1
Assay [12] relates to Echinochloa crus-galli (ECHCG). The description is as above. The conditions noted are these: 360 h, rate 125 g/ha, evaluated 15 days later, 100=total damage to plant, 0=no damage to plant. The essentials:
as §1

With `CCc1ccc(-c2ccc(Cl)c(F)c2)cc1C1=C(O)[C@H]2[C@@H](C1=O)[C@@H]1CC[C@H]2O1` [Compound T19], the pest or weed control at 250 g/ha in [1] is 100%; in the assay on Setaria faberi (SETFA) [2] it was 90%; in assay [3], 70%; with Lolium perenne (LOLPE) [4] it was 60%; with Avena fatua (AVEFA) [5] it was 70%; in [6], 90%. Also, the pest or weed control at 125 g/ha in [7] is 100%; in the assay with Setaria faberi (SETFA) [8] it was 100%; in [9] it was 100%; in the assay with Lolium perenne (LOLPE) [10], 90%; with Avena fatua (AVEFA) [11], 100%; in assay [12] it was 100%.
As to `CCc1ccc(-c2ccc(Cl)nc2Cl)cc1C1=C(O)[C@H]2[C@@H](C1=O)[C@@H]1CC[C@H]2O1` [Compound T21], the pest or weed control at 250 g/ha in assay [1] was found to be 90%; in the assay with Setaria faberi (SETFA) [2], 100%; in assay [3], 50%; in the assay with Lolium perenne (LOLPE) [4], 60%; with Avena fatua (AVEFA) [5], 50%; in assay [6], 100%. In addition, the pest or weed control at 125 g/ha was determined as 100% in assay [7]; 90% in the assay with Setaria faberi (SETFA) [8]; 80% in assay [9]; 40% in the assay with Lolium perenne (LOLPE) [10]; 80% in the assay on Avena fatua (AVEFA) [11]; 100% in assay [12].
Turning to `CCc1ccc(-c2ccc(Cl)cc2Cl)cc1C1=C(O)[C@H]2[C@@H](C1=O)[C@]1(C)CC[C@@]2(C)O1` [Compound T24], the pest or weed control at 250 g/ha in assay [1] was determined as 100%; in the assay with Setaria faberi (SETFA) [2] it was 100%; in assay [3], 10%; in the assay with Lolium perenne (LOLPE) [4] it was 30%; in the assay on Avena fatua (AVEFA) [5], 30%; in assay [6] it was 100%. Further, the pest or weed control at 125 g/ha in assay [7] amounted to 100%; with Setaria faberi (SETFA) [8], 100%; in assay [9], 90%; in the assay on Lolium perenne (LOLPE) [10] it was 60%; in the assay on Avena fatua (AVEFA) [11] it was 90%; in [12] it was 100%.
Take `Cc1cc(-c2ccc(C(F)(F)F)cc2)cc(C)c1C1C(=O)[C@@H]2[C@H](C1=O)[C@H]1CC[C@@H]2O1` (stereo partly drawn) [Compound T26]: the pest or weed control at 250 g/ha is 70% in [1]; 70% in the assay on Setaria faberi (SETFA) [2]; 0% in assay [3]; 0% in the assay with Lolium perenne (LOLPE) [4]; 0% in the assay with Avena fatua (AVEFA) [5]; 70% in assay [6]. Besides, the pest or weed control at 125 g/ha in assay [7] worked out at 90%; in the assay with Setaria faberi (SETFA) [8], 100%; in assay [9], 30%; with Lolium perenne (LOLPE) [10] it was 30%; with Avena fatua (AVEFA) [11] it was 20%; in [12] it was 90%.
As for `Cc1ccc(-c2cc(C)c(C3C(=O)[C@@H]4[C@H](C3=O)[C@H]3CC[C@@H]4O3)c(C)c2)cc1` (stereo partly drawn) [Compound T27], the pest or weed control at 250 g/ha in [1] amounted to 40%; in the assay with Setaria faberi (SETFA) [2], 40%; in [3], 0%; in the assay with Lolium perenne (LOLPE) [4], 30%; in the assay on Avena fatua (AVEFA) [5], 30%; in assay [6], 60%. Besides, the pest or weed control at 125 g/ha was 60% in [7]; 70% in the assay with Setaria faberi (SETFA) [8]; 70% in assay [9]; 70% in the assay with Lolium perenne (LOLPE) [10]; 40% in the assay with Avena fatua (AVEFA) [11]; 70% in assay [12].

What is called pest or weed control is how far the test organism was held down. Low values mean weak suppression, high ones strong suppression.

Values taken from patent publication US8940913B2, “Herbicides” (Syngenta Crop Protection, LLC, priority 2007, dated 2015).
